Laboratory results taken from patent US20150274719A1, “AMINO-SUBSTITUTED IMIDAZO[1,2-A]PYRIDINECARBOXAMIDES AND THEIR USE” (BAYER PHARMA AKTIENGESELLSCHAFT, priority 2012, published 2015).

Each compound was assayed against T1, recombinant guanylate cyclase reporter cell line (Rattus norvegicus, UniProt P19686+P20595) (assay: Action on recombinant guanylate cyclase reporter cell line). Details: in some cases mean values from individual determinations.
T1 construct: expressed in transfected cells; host or cells: recombinant reporter cell line
T1 sequence (P19686 1-690): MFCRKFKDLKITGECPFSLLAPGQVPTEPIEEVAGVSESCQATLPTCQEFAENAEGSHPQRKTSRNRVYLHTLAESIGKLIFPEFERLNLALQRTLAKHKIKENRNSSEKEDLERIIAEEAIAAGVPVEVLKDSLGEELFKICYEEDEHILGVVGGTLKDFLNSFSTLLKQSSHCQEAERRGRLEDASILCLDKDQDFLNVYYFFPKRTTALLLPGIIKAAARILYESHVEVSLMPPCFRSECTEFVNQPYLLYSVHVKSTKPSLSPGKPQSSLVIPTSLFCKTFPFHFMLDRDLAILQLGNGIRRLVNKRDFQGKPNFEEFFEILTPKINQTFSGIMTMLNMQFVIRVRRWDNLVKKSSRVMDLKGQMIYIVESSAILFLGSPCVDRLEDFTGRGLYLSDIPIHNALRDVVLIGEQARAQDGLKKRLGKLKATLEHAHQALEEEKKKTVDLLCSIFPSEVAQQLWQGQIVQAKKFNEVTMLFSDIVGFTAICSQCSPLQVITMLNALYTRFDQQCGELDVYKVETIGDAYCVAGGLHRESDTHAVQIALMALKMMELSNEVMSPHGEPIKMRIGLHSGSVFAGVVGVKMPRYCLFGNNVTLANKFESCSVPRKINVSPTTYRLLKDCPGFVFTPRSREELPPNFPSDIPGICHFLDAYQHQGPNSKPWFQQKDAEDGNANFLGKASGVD
T1 sequence (P20595 1-619): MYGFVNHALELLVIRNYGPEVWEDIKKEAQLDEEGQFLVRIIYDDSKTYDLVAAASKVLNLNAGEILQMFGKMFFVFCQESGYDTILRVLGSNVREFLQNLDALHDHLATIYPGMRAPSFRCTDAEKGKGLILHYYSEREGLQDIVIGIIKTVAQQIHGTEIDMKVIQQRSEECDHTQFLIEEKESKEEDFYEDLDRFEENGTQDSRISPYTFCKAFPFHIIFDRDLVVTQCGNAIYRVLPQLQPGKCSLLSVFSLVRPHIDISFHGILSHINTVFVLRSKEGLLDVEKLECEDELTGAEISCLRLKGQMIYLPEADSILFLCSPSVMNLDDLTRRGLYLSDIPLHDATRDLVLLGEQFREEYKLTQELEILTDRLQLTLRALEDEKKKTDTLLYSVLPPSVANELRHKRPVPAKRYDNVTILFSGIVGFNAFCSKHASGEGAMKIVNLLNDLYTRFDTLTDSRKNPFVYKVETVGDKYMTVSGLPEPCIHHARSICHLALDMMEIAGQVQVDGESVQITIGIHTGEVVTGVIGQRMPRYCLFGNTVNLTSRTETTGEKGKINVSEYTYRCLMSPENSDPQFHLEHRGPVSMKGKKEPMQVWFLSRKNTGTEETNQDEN
Format: cell-based
Procedure, shortened: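 Cellular activity was measured in a reporter cell line expressing recombinant guanylate cyclase. Values are given as MEC, the minimal effective concentration, and some are means of individual determinations.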

Row | Compound | MEC (minimal effective concentration)
1 | Cc1cc(OCc2c(F)cccc2F)c2nc(C)c(C(=O)NCCN3CC(N4CCCC4)C3)n2c1 [Example 162, 8-[(2,6-difluorobenzyl)oxy]-2,6-dimethyl-N-{2-[3-(pyrrolidin-1-yl)azetidin-1-yl]ethyl}imidazo[1,2-a]pyridine-3-carboxamide] | 3.00 µM
2 | Cc1cc(OCc2c(F)cccc2F)c2nc(C)c(C(=O)NCCN3CCC(F)(F)CC3)n2c1 [Example 163, 8-[(2,6-difluorobenzyl)oxy]-N-[2-(4,4-difluoro-piperidin-1-yl)ethyl]-2,6-dimethylimidazo[1,2-a]pyridine-3-carboxamide] | 0.30 µM
3 | Cc1cc(OCc2c(F)cccc2F)c2nc(C)c(C(=O)NCCN(CC(F)F)C3CC3)n2c1 [Example 164, N-{2-[cyclopropyl(2,2-difluoroethyl)amino]ethyl}-8-[(2,6-difluorobenzyl)oxy]-2,6-dimethylimidazo[1,2-a]-pyridine-3-carboxamide] | 0.10 µM
4 | Cc1cc(OCc2c(F)cccc2F)c2nc(C)c(C(=O)NCC3(N)CCC3)n2c1 [Example 165, N-[(1-aminocyclobutyl)methyl]-8-[(2,6-difluorobenzyl)oxy]-2,6-dimethylimidazo[1,2-a]-pyridine-3-carboxamide] | 0.10 µM
5 | Cc1cc(OCc2c(F)cccc2F)c2nc(C)c(C(=O)NCCN3C[C@@H](C)O[C@@H](C)C3)n2c1 [Example 167, 8-[(2,6-difluorobenzyl)oxy]-N-{2-[(2R,6S)-2,6-dimethylmorpholin-4-yl]ethyl}-2,6-dimethyl-imidazo[1,2-a]pyridine-3-carboxamide] | 1.00 µM
6 | Cc1nc2c(OCc3c(F)cccc3F)cccn2c1C(=O)NCCN1CCN(C2CC2)CC1 [Example 168, N-[2-(4-Cyclopropylpiperazin-1-yl)ethyl]-8-[(2,6-difluorobenzyl)oxy]-2-methylimidazo[1,2-a]-pyridine-3-carboxamide] | 1.00 µM
7 | Cc1nc2c(OCc3c(F)cccc3F)cccn2c1C(=O)NCCNCC(F)F [Example 169] | 1.65 µM
8 | Cc1nc2c(OCc3c(F)cccc3F)cccn2c1C(=O)N[C@H](C)CN1CCOCC1 [Example 170, 8-[(2,6-difluorobenzyl)oxy]-2-methyl-N-[(2R)-1-(morpholin-4-yl)propan-2-yl]imidazo[1,2-a]-pyridine-3-carboxamide] | 3.00 µM
9 | Cc1nc2c(OCc3c(F)cccc3F)cccn2c1C(=O)N[C@@H](C)CN1CCOCC1 [Example 171, 8-[(2,6-difluorobenzyl)oxy]-2-methyl-N-[(2S)-1-(morpholin-4-yl)propan-2-yl]imidazo[1,2-a]-pyridine-3-carboxamide] | 1.00 µM
10 | Cc1cc(OCc2c(F)cccc2F)c2nc(C)c(C(=O)NC[C@@H]3CCCCN3)n2c1 [Example 172, 8-[(2,6-Difluorobenzyl)oxy]-2,6-dimethyl-N-[(2S)-piperidin-2-ylmethyl]imidazo[1,2-a]pyridine-3-carboxamide] | 0.30 µM
11 | Cc1cc(OCc2c(F)cccc2F)c2nc(C)c(C(=O)NCC3(N)COC3)n2c1 [Example 216, N-[(3-Aminooxetan-3-yl)methyl]-8-[(2,6-difluorobenzyl)oxy]-2,6-dimethylimidazo[1,2-a]pyridine-3-carboxamide] | 1.00 µM
12 | Cc1cc(OCc2c(F)cccc2F)c2nc(C)c(C(=O)N[C@@H]3CCCC[C@H]3N)n2c1 [Example 251, ent-N-[(1R,2R)-2-Aminocyclohexyl]-8-[(2,6-difluorobenzyl)oxy]-2,6-dimethylimidazo[1,2-a]-pyridine-3-carboxamide] | 3.00 µM
13 | CCC(N)(CC)CNC(=O)c1c(C)nc2c(OCc3c(F)cccc3F)cccn12 [Example 253, N-(2-Amino-2-ethylbutyl)-8-[(2,6-difluorobenzyl)oxy]-2-methylimidazo[1,2-a]pyridine-3-carboxamide] | 0.10 µM
14 | Cc1cc(OCc2c(F)cccc2F)c2nc(C)c(C(=O)NCCNC(C)(C)C)n2c1 [Example 255, N-[2-(tert-Butylamino)ethyl]-8-[(2,6-difluorobenzyl)oxy]-2,6-dimethylimidazo[1,2-a]pyridine-3-carboxamide] | 0.30 µM
15 | CCCC(C)(N)CNC(=O)c1c(C)nc2c(OC(C)c3c(F)cccc3F)cc(C)cn12 (stereo not drawn) [Example 257, N-(2-Amino-2-methylpentyl)-8-[1-(2,6-difluorophenyl)ethoxy]-2,6-dimethylimidazo[1,2-a]-pyridine-3-carboxamide] | 1.00 µM
16 | COC(=O)[C@@H](N)CCCCNC(=O)c1c(C)nc2c(OCc3c(F)cccc3F)cc(C)cn12 [Example 294, Methyl N^6-({8-[(2,6-difluorobenzyl)oxy]-2,6-dimethylimidazo[1,2-a]pyridin-3-yl}carbonyl)-L-lysinate] | 0.065 µM
17 | CCCC(C)(N)CNC(=O)c1c(C(F)(F)F)nc2c(OCc3c(F)cccc3F)cc(C)cn12 (stereo not drawn) [Example 305, ent-N-(2-amino-2-methylpentyl)-8-[(2,6-difluorobenzyl)oxy]-6-methyl-2-(trifluoromethyl)imidazo[1,2-a]pyridine-3-carboxamide] | 0.10 µM
18 | CCCC(C)(N)CNC(=O)c1c(C)nc2c(OCc3c(F)cccc3F)cc(Br)cn12 (stereo not drawn) [Example 306, ent-N-(2-amino-2-methylpentyl)-6-bromo-8-[(2,6-difluorobenzyl)oxy]-2-methylimidazo[1,2-a]pyridine-3-carboxamide] | 0.10 µM
19 | Cc1cc(OCc2c(F)cccc2F)c2nc(C)c(C(=O)N[C@H]3C[C@H]4CN(C)CCN4C3)n2c1 [Example 314, 8-[(2,6-Difluorobenzyl)oxy]-2,6-dimethyl-N-[(7S,8aS)-2-methyloctahydropyrrolo[1,2-a]pyrazin-7-yl]imidazo[1,2-a]pyridine-3-carboxamide] | 0.30 µM
20 | CCC(C)(CN)NC(=O)c1c(C)nc2c(OCc3c(F)ccc(F)c3F)cc(C)cn12 (stereo not drawn) [Example 315, ent-N-(1-amino-2-methylbutan-2-yl)-2,6-dimethyl-8-[(2,3,6-trifluorobenzyl)oxy]imidazo[1,2-a]pyridine-3-carboxamide] | 0.30 µM
21 | CCCC(C)(N)CNC(=O)c1c(C)nc2c(OCc3c(F)cccc3F)cccn12 (stereo not drawn) [Example 318, ent-N-(2-amino-2-methylpentyl)-8-[(2,6-difluorobenzyl)oxy]-2-methylimidazo[1,2-a]pyridine-3-carboxamide] | 0.30 µM
22 | COC(=O)[C@@H](N)CNC(=O)c1c(C)nc2c(OCc3c(F)cccc3F)cc(C)cn12 [Example 319, Methyl 3-[({8-[(2,6-difluorobenzyl)oxy]-2,6-dimethylimidazo[1,2-a]pyridin-3-yl}carbonyl)amino]-L-alaninate] | 0.30 µM
23 | CCCC(C)(N)CNC(=O)c1c(C2CC2)nc2c(OCc3c(F)cccc3F)cc(C)cn12 (stereo not drawn) [Example 322, ent-N-(2-amino-2-methylpentyl)-2-cyclopropyl-8-[(2,6-difluorobenzyl)oxy]-6-methylimidazo[1,2-a]pyridine-3-carboxamide] | 0.30 µM
24 | CCCC(C)(N)CNC(=O)c1c(C)nc2c(OCc3c(F)cccc3F)cc(CC)cn12 (stereo not drawn) [Example 323, ent-N-(2-amino-2-methylpentyl)-8-[(2,6-difluorobenzyl)oxy]-6-ethyl-2-methylimidazo[1,2-a]pyridine-3-carboxamide] | 0.30 µM
